Test in all cases: Kinase selectivity, P33-radiolabeled assay
Assay type in all cases: biochemical
Common to all, as to details: 10 μM ATP

The target in one experiment is T1, MARK4 (Homo sapiens, UniProt Q96L34).
T1 construct: purchased Reaction Biology Corp
T1 sequence (Q96L34 1-752): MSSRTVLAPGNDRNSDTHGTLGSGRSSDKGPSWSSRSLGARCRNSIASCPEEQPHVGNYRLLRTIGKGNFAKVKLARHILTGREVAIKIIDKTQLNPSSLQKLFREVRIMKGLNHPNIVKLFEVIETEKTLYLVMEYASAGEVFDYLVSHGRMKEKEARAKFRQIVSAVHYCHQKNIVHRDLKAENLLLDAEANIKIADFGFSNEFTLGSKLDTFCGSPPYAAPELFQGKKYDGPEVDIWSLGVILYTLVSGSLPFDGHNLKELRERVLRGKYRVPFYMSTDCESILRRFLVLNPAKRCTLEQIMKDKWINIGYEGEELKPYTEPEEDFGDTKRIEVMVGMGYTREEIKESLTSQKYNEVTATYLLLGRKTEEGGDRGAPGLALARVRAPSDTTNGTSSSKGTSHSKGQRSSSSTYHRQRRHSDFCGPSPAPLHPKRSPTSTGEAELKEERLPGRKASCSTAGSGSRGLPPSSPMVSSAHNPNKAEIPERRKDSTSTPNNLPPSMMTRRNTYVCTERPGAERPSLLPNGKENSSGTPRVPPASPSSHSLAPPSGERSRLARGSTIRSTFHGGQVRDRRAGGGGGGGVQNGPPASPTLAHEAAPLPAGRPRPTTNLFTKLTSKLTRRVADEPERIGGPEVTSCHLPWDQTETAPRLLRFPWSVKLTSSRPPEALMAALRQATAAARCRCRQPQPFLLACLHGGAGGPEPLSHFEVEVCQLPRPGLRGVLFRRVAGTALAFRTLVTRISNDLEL
The essentials:
(§1)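 Activity relative to DMSO controls (%) was measured for compound at 10 μM. Assays ran at 10 μM ATP, in duplicate.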

Another experiment has as its target T2, PDK1/PDPK1 (Homo sapiens, UniProt O15530).
T2 construct: purchased Reaction Biology Corp
T2 sequence (O15530 1-556): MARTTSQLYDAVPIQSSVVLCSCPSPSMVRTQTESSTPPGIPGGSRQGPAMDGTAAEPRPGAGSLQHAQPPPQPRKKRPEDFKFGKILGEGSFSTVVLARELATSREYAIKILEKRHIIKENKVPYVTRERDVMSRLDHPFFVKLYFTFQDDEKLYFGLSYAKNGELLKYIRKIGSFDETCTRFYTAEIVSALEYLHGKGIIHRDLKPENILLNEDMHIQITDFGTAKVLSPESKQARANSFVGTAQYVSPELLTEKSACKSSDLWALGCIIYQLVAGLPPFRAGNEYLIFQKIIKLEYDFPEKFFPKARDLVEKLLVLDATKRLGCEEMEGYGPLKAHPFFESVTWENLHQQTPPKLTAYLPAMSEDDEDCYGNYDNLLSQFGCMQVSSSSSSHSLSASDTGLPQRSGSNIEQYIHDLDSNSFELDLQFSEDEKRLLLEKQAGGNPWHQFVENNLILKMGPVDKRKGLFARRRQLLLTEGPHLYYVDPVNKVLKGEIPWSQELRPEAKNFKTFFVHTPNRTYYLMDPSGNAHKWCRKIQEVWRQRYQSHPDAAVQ
The essentials:
as §1

Another experiment addresses T3, PKG1a (Homo sapiens, UniProt Q13976).
T3 construct: purchased Reaction Biology Corp
T3 sequence (Q13976 1-671): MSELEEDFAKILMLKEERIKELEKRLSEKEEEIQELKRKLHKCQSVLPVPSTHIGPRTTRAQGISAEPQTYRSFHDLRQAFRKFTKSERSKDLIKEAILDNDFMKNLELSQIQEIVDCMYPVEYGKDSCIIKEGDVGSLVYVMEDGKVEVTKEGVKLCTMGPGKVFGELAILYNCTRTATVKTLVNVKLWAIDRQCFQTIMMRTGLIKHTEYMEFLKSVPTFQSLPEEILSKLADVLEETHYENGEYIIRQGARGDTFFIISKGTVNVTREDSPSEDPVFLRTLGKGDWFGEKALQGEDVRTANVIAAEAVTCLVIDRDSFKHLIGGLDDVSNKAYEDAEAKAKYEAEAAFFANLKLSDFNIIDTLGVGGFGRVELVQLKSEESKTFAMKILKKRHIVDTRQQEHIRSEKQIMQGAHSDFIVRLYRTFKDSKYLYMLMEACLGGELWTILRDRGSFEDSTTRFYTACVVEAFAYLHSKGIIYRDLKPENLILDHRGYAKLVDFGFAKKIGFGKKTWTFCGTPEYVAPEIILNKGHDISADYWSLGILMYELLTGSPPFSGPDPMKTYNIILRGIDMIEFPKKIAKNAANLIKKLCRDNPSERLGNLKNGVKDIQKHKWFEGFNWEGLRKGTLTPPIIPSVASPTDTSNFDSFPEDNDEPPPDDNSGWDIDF
In short, it runs like this: as §1

[1] abbreviates: read-out: % Enzyme Activity (relative to DMSO controls) AVG.
Where [2] appears, read: read-out: % Enzyme Activity (relative to DMSO controls) Data 1.
Where [3] appears, read: read-out: % Enzyme Activity (relative to DMSO controls) Data 2.

This is an account of results in article PMC4979471 (Cell Death Discovery, 2015).

Read-outs that look alike come from different tables or passages of the source.

For `CC(C)(C)C(=O)N1N=CC[C@H]1c1ccccc1` [GSK′963], the remaining activity at 10 µM on MARK4 (setting [1]) was determined as 107%; at MARK4 (setting [2]) it was 105%; at MARK4 (setting [3]), 109%; on PDK1/PDPK1 (setting [1]) it was 109%; at PDK1/PDPK1 (setting [2]) it was 108%; at PDK1/PDPK1 (setting [3]) it was 110%. In addition, the remaining activity at 10 µM was 90% on PKG1a (setting [1]), 92.4% at PKG1a (setting [2]) and 87.7% at PKG1a (setting [3]).
